Results as given in US20070167452A1, “Therapeutic amide derivatives” (PFIZER, INC., priority 2004, published 2007).

Row | Structure (SMILES) | melting point [°C]
1 | O=C(NC[C@]1(O)CC[C@H](COc2ccccc2)CC1)c1ccc(O)cc1 [Example 8, 4-Hydroxy-N-{[trans-1-hydroxy-4-(phenoxymethyl)cyclohexyl]methyl}benzamide] | 189.5
2 | O=C(NC[C@]1(O)CC[C@H](COc2c(F)cccc2F)CC1)c1ccc(O)cc1 [Example 12, N-({trans-4-[(2,6-Difluorophenoxy)methyl]-1-hydroxycyclohexyl}methyl)-4-hydroxybenzamide] | 153.7
3 | O=C(NC[C@]1(O)CC[C@H](COc2ccccc2Cl)CC1)c1ccc(O)cc1 [Example 14, N-({trans-4-[(2-Chlorophenoxy)methyl]-1-hydroxycyclohexyl}methyl)-4-hydroxybenzamide] | 159
4 | COc1cccc(OC[C@H]2CC[C@@](O)(CNC(=O)c3ccc(O)cc3)CC2)c1 [Example 20, 4-Hydroxy-N-({trans-1-hydroxy-4-[(3-methoxyphenoxy)methyl]cyclohexyl}methyl)benzamide] | 190.3
5 | O=C(NC[C@]1(O)CC[C@H](COCc2ccc(Cl)cc2)CC1)c1ccc(O)cc1 [Example 25, N-[(trans-4-{[(4-Chlorobenzyl)oxy]methyl}-1-hydroxycyclohexyl)methyl]-4-hydroxybenzamide] | 164.1
6 | O=C(NC[C@]1(O)CC[C@H](CCOc2ccccc2)CC1)c1ccc(O)cc1 [Example 26, 4-Hydroxy-N-{[trans-1-hydroxy-4-(2-phenoxyethyl)cyclohexyl]methyl}benzamide] | 168.7
7 | O=C(NC[C@]1(O)CC[C@H](CCOc2ccccc2F)CC1)c1ccc(O)cc1 [Example 27, N-({trans-4-[2-(2-Fluorophenoxy)ethyl]-1-hydroxycyclohexyl}methyl)-4-hydroxybenzamide] | 178.9
8 | O=C(NC[C@]1(O)CC[C@H](CCOc2cccc(F)c2)CC1)c1ccc(O)cc1 [Example 28, N-({trans-4-[2-(3-Fluorophenoxy)ethyl]-1-hydroxycyclohexyl}methyl)-4-hydroxybenzamide] | 134.5
9 | O=C(NC[C@]1(O)CC[C@H](CCOc2ccc(F)cc2)CC1)c1ccc(O)cc1 [Example 29, N-({trans-4-[2-(4-Fluorophenoxy)ethyl]-1-hydroxycyclohexyl}methyl)-4-hydroxybenzamide] | 177.5
10 | O=C(NC[C@]1(O)CC[C@@H](Oc2ccc(Cl)cc2)CC1)c1ccc(O)cc1 [Example 32, N-{[cis-4-(4-Chlorophenoxy)-1-hydroxycyclohexyl]methyl}-4-hydroxybenzamide] | 196.6
11 | O=C(NC[C@]1(O)CC[C@H](OCc2ccc(F)cc2)CC1)c1ccc(O)cc1 [Example 47, N-({trans-4-[(4-Fluorobenzyl)oxy]-1-hydroxycyclohexyl}methyl)-4-hydroxybenzamide] | 122.1
12 | O=C(NC[C@]1(O)CC[C@H](OCc2cccc(F)c2)CC1)c1ccc(O)c(F)c1 [Example 49] | 138.2
13 | O=C(NC[C@]1(O)CC[C@H](CCOc2ccccc2F)CC1)c1ccc(O)c(F)c1 [Example 51, 3-Fluoro-N-({trans-4-[2-(2-fluorophenoxy)ethyl]-1-hydroxycyclohexyl}methyl)-4-hydroxybenzamide] | 184.7
14 | O=C(NC[C@H]1CC[C@@H](Oc2ccc(F)cc2)CC1)c1ccc(O)cc1 [Example 54, N-{[cis-4-(4-Fluorophenoxy)cyclohexyl]methyl}-4-hydroxybenzamide] | 170.5
15 | O=C(NC[C@H]1CC[C@@H](Oc2ccc(F)cc2)CC1)c1ccc(O)c(F)c1 [Example 55, 3-Fluoro-N-{[cis-4-(4-fluorophenoxy)cyclohexyl]methyl}-4-hydroxybenzamide] | 149.5
16 | O=C(NC[C@H]1CC[C@@H](OCCc2ccccc2)CC1)c1cn[nH]c1 [Example 72, N-{[cis-4-(2-Phenylethoxy)cyclohexyl]methyl}-1H-pyrazole-4-carboxamide] | 145

Row | Structure (SMILES) | melting point [°C]
17 | O=C(NC[C@H]1CC[C@@H](CCOc2ccccc2)CC1)c1cn[nH]c1 [Example 77, N-{[cis-4-(2-Phenoxyethyl)cyclohexyl]methyl}-1H-pyrazole-4-carboxamide] | 155.7
18 | O=C(NC[C@H]1CC[C@@H](COc2ccccc2)CC1)c1ccc(O)nc1 [Example 82, 6-Hydroxy-N-{[cis-4-(phenoxymethyl)cyclohexyl]methyl}nicotinamide] | 189.8
19 | O=C(NC[C@H]1CC[C@@H](CCOc2ccccc2)CC1)c1ccnc(O)c1 [Example 83, 2-Hydroxy-N-{[cis-4-(2-phenoxyethyl)cyclohexyl]methyl}isonicotinamide] | 199.9
20 | O=C(NC[C@H]1CC[C@@H](CCOc2ccccc2)CC1)c1ccc(O)nc1 [Example 84, 6-Hydroxy-N-{[cis-4-(2-phenoxyethyl)cyclohexyl]methyl}nicotinamide] | 167.6
21 | O=C(NC[C@H]1CC[C@@H](CCOc2ccccc2)CC1)c1ccn[nH]1 [Example 85, N-{[cis-4-(2-Phenoxyethyl)cyclohexyl]methyl}-1H-pyrazole-5-carboxamide] | 130.5
22 | O=C(NC[C@H]1CC[C@@H](CCOc2ccccc2)CC1)c1c[nH]cn1 [Example 86, N-{[cis-4-(2-Phenoxyethyl)cyclohexyl]methyl}-1H-imidazole-4-carboxamide] | 169.6
23 | O=C(NC[C@H]1CC[C@@H](CCOc2ccccc2)CC1)c1ccc(=O)[nH]n1 [Example 93, 6-Oxo-N-{[cis-4-(2-phenoxyethyl)cyclohexyl]methyl}-1,6-dihydropyridazine-3-carboxamide] | 177.5
24 | O=C(NC[C@H]1CC[C@@H](CCOc2ccccc2)CC1)c1cc[nH]c1 [Example 96, N-{[cis-4-(2-Phenoxyethyl)cyclohexyl]methyl}-1H-pyrrole-3-carboxamide] | 121
25 | O=C(NC[C@H]1CC[C@@H](COc2ccccc2F)CC1)c1cn[nH]c1 [Example 100, N-({cis-4-[(2-Fluorophenoxy)methyl]cyclohexyl}methyl)-1H-pyrazole-4-carboxamide] | 139.8
26 | O=C(NC[C@H]1CC[C@@H](CCOc2ccccc2)CC1)c1ccc2[nH]c(=O)sc2c1 [Example 101, 2-Oxo-N-{[cis-4-(2-phenoxyethyl)cyclohexyl]methyl}-2,3-dihydro-1,3-benzothiazole-6-carboxamid] | 159.9
27 | Nc1n[nH]cc1C(=O)NC[C@H]1CC[C@@H](CCOc2ccccc2)CC1 [Example 102, 3-Amino-N-{[cis-4-(2-phenoxyethyl)cyclohexyl]methyl)-1H-pyrazole-4-carboxamide] | 129.3
28 | O=C(NC[C@H]1CC[C@@H](CCOc2ccccc2)CC1)c1ccc2[nH]ncc2c1 [Example 103, N-{[cis-4-(2-Phenoxyethyl)cyclohexyl]methyl}-1H-indazole-5-carboxamide] | 144.5
29 | O=C(NC[C@H]1CC[C@@H](CCOc2ccccc2)CC1)c1c[nH]nn1 [Example 104, N-{[cis-4-(2-Phenoxyethyl)cyclohexyl]methyl}-1H-1,2,3-triazole-4-carboxamide] | 141.2
30 | O=C(NC[C@H]1CC[C@@H](COc2ccc(F)cc2)CC1)c1cn[nH]c1 [Example 109, N-({cis-4-[(4-Fluorophenoxy)methyl]cyclohexyl}methyl)-1H-pyrazole-4-carboxamide] | 147.1
31 | O=C1CCc2cc(C(=O)NC[C@H]3CC[C@@H](Cc4ccccc4)CC3)ccc2N1 [Example 118, N-[(cis-4-Benzylcyclohexyl)methyl]-2-oxo-1,2,3,4-tetrahydroquinoline-6-carboxamide] | 188.5
32 | O=C(NC[C@H]1CC[C@@H](Cc2ccccc2)CC1)c1ccc2nc(O)ccc2c1 [Example 122, N-[(cis-4-Benzylcyclohexyl)methyl]-2-hydroxyquinoline-6-carboxamide] | 236.7
